# In patent US6472563B1, “Formoterol tartrate process and polymorph” (Sepracor Inc., priority 2001, dated 2002):
# Assays:
# [1] = factor; cited from earlier work
# [2] = compared to other salts of R,R-formoterol; cited from earlier work
# [3] = Dissolution studies: 17 wt % slurry in 50% aqueous isopropyl alcohol stirred with warming; type: physicochemical; details: listed as form A
# Protocol: Dissolution studies were done on each polymorph. A 17 wt % slurry of the respective solid in 50% aqueous isopropyl alcohol was stirred with warming, and the temperature of dissolution was recorded.
compound,measurement,setting,value
CCCCCCCCCCCCCCCC(=O)OC[C@@H](NC(=O)C(Cl)Cl)[C@H](O)c1ccc([N+](=O)[O-])cc1 [Chloramphenicol-3-palmitate],difference in bio-activity between form A and form B,[1],eight
"COc1ccc(C[C@@H](C)NC[C@H](O)c2ccc(O)c(NC=O)c2)cc1.O=C(O)C(O)C(O)C(=O)O [L-(+)-tartrate salt of R,R-formoterol, (R,R)-formoterol L-tartrate]",hygroscopicity,[2],non-hygroscopic
"COc1ccc(C[C@@H](C)NC[C@H](O)c2ccc(O)c(NC=O)c2)cc1.O=C(O)C(O)C(O)C(=O)O [Polymorph A, (R,R)-formoterol L-tartrate]",temperature of dissolution,[3],65-70 °C
